From US20230053493A1, “ONE STEP METHODS, KITS, AND SYSTEMS FOR THE MEASUREMENT OF CONCENTRATIONS OF UNBOUND BILIRUBIN IN BIOLOGICAL FLUIDS” (priority 2019, published 2023)
Structures can show the parent of a compound that is named as a salt. Blank lines part the entries; values can stand above or below the molecule they belong to.

Tests used:
Albumin [1] = target: T1, Albumin (Homo sapiens, UniProt P02768); assay: Drug displacement of bilirubin from albumin / interference, Bf measured with one-step cartridges; type: in vitro ADME; conditions: percent increase of Bf for the 3x drug concentration relative to no drug; negative value = interference with the Bf sensor
T1 sequence (P02768 25-609): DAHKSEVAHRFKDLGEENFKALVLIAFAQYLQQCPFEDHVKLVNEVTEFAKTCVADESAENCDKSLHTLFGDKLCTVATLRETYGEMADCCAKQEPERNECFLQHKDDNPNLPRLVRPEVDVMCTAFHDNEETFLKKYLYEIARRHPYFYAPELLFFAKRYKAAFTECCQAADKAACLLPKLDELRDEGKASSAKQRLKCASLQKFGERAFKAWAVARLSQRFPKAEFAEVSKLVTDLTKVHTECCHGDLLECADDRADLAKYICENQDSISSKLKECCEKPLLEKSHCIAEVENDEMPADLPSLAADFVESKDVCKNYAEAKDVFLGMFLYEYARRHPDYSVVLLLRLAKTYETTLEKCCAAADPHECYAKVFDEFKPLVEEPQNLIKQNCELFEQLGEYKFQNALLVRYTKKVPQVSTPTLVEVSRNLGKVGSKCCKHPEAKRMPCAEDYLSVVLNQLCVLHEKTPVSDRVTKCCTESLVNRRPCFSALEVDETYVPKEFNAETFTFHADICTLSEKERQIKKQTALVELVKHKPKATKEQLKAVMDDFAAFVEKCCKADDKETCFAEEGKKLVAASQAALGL
From the text: Premature infants who are at high risk for bilirubin neurotoxicity are of particular concern because NICU infants frequently receive medications. [Hsieh et al. Medication use in the neonatal intensive care unit. Am J Perinatol.

Albumin [2] = target: T1, Albumin; conditions: cefazolin 3.76 mM
adult human albumin = adult human albumin (Homo sapiens, UniProt P02768); conditions: high affinity site; read-out: equilibrium dissociation constant (Kd) of bilirubin for adult human albumin; cited from earlier work
Sequence of adult human albumin (P02768 25-609): as above

[3] = Interference of conjugated bilirubin (ditaurobilirubin) with Bf measurement, UBCheck vs Arrows UA-2; design: species or system human
Method: The potential interference of conjugated bilirubin with the bilirubin probes is determined by measuring the effect of ditaurobilirubin on the ability of the UBCheck to measure Bf accurately. We also compared the UBCheck results with measurements using the Arrows UB analyzer UA-2 method. The measurements are performed by spiking neonatal serum with unconjugated bilirubin to yield a Bf of approximately 10 nM and then titrating the spiked sample with ditaurobilirubin up to 20 mg/dl (FIG. 7). At each step Bf is measured by UBCheck and Arrows and the direct (conjugated) bilirubin concentration is determined using a Sigma direct bilirubin kit. At zero ditaurobilirubin both UBCheck and Arrows yield Bf of 10 nM but the direct bilirubin measurement yields a non-zero value of about 0.5 mg/dl (FIG. 7). With increasing concentrations of ditaurobilirubin UBCheck is unchanged but Arrows increases starting at about 0.5 mg/dl of ditaurobilirubin and then increases rapidly until 4 mg/dl ditaurobilirubin where the Arrow's assay saturates at Bf ≥50 nM. In contrast, the UBCheck only begins to increase at 4 mg/dl ditaurobilirubin where its Bf increase to about 12 nM, a 20% increase from the initial 10 nM level, and only at 20 mg/dl ditaurobilirubin does Bf increase to 33 nM.

[4] = Effect of hemoglobin/hemolysate on UBCheck Bf measurement; design: species or system human; conditions: bilirubin spiked neonatal serum; hemoglobin concentrations at least as high as 4 g/l; cartridges with Hb blocking peptide
Method: After the Bf responder and non-responder probes are applied to the Ni-polystyrene beads, the peptide of Table 4 is added to the beads and is attached through double HIS tags to the bead's Ni-NTAs. The combined probes plus peptide beads are then spotted onto cartridges. The effect of whole blood hemolysate was tested by titrating bilirubin spiked neonatal serum with increasing hemoglobin concentrations.

[5] = Calibration of free NIR probe/sensor by bilirubin titration (cuvette fluorometry, fit with equation 1); type: binding; conditions: for Qs (Rm/Ro): degree to which the probe is quenched by bilirubin binding, effect of fluorophore position; for Kd: effect of fluorophore (cysteine) position, responder probe labeled with 700DX-maleimide
From the text: Embodiments provided herein are directed to methods of calibrating the bilirubin probes by mixing in an aqueous media the sensor with samples of bilirubin of increasing total bilirubin concentrations (BT), measuring the ratio of fluorescence intensities R of the sensor at each concentration, and determining the calibration parameters (Kd, Rm, and Ro) from the measured fluorescence by fitting with the equation (1), wherein R is the measured fluorescence ratio (Iλ1/Iλ2), where hi is the fluorescence intensity from the first fluorophore at wavelength λ1 and Iλ2 is the fluorescence intensity from the second fluorophore at wavelength λ2, both λ1 and λ2 have background subtracted, and Ro is the ratio in the absence of bilirubin. BT is the total bilirubin concentration and PT is the concentration of the sensor, r is the Iλ2/Iλ1 ratio of the bilirubin sensitive probe's fluorescence in the absence of the second fluorophore, Kd is the equilibrium dissociation constant of the sensor and Rm is the ratio R extrapolated to infinite BT. Equation (1) is used in some embodiments rather than equation (5) of U.S. Pat. No. 9,529,003 when Rm is >0.
Also described are methods for calibrating and using a bilirubin sensor described herein so that Bf concentrations can be determined in approximately 5 μl of undiluted blood samples in a single step. These small volume blood samples are applied to the disposable plastic microfluidic cartridges containing the dried bilirubin ratio sensor. The bilirubin sensor containing cartridges are preferably used for a single measurement and the calibration parameters (Kd, Rm, Ro) must be determined within a “lot” of identically manufactured cartridges. The calibration is performed by titrating a sufficient number of cartridges with aqueous samples of increasing well-defined Bf levels. Because plastics bind unbound bilirubin and because surface to volume ratio in the microfluidics channel is large, the calibration Bf samples must be highly buffered by complexes with albumin. The Bf concentrations of each complex are determined by measuring each by cuvette fluorometry using a calibrated sensor free in aqueous solutions. The free sensor is calibrated by titration with aqueous solutions of bilirubin where the concentrations of these unbound bilirubin solutions are determined by absorbance. The free probe's response (R values versus Bf concentrations) are used to determine the free sensor's calibration (Kd, Rm, Ro) (equation 1). The calibrated free sensor mixed with samples of each of the BR:HSA complexes is used to determine the Bf concentrations of each complexes by cuvette fluorometry using equation 2. These calibrated complexes are used to determine the binding parameters of the disposable cartridges including the equilibrium dissociation constant (Kd), the minimum fluorescence ratio (Rm) and the initial ratio (Ro) under defined conditions, of temperature, pH, and solution composition, suitable for blood samples. Binding isotherms are performed in aqueous buffer by measuring the change in fluorescence of the bilirubin sensor in response to increasing bilirubin concentrations (“titration data”). The set of fluorescence responses at each bilirubin concentration are fitted with an appropriate equation (“calibration equation (3)”) that correctly describes the fluorescence response as a function of the Bf concentration, the, specific spectroscopic characteristics, and the Kd.
All responder probes labeled with LICOR 700DX-maleimide and non-responder probes labeled with LICOR 800CW-maleimide probes in Tables 1 and 2, respectively have qualitatively similar dependencies on Bf. The probes differ mostly in protein expression, binding parameters (Kd, Ro and Rm) and stability. […] Although the non-responders are not characterized by bilirubin binding parameters, the emission spectrum of the 800CW-maleimide is sensitive to specific substitutions that can alter the LICOR 700DX-maleimide intensities. […]

[6] = Fluorescence intensities of Bf sensor with increasing total bilirubin (FIG. 1); type: binding; conditions: increasing BT; 675 nm excitation; probe 10 nM, free in aqueous buffer
Method: FIG. 1 depicts the intensities and ratios of intensities for a Bf sensor composed of the bilirubin responsive LICOR 700DX maleimide Mut:SEQ ID NO:2-76C probe (Table 1) and the bilirubin non-responder LICOR 800CW maleimide Mut:SEQ ID NO:1 B-73C probe (Table 2), both free in aqueous buffer, with increasing BT (total bilirubin) which at the concentrations used is primarily unbound bilirubin (Bf). Measurements of the 710 and 805 nm intensities at 675 nm excitation were performed at the probe concentrations of 1.5 nM and 10 nM, respectively in a Horiba Fluorolog 2.

[7] = Stability of non-responder probe 700/819 nm emission ratio in storage; type: physicochemical; conditions: at 1 and 6 days; absence of 700DX-maleimide
From the text: All responder probes labeled with LICOR 700DX-maleimide and non-responder probes labeled with LICOR 800CW-maleimide probes in Tables 1 and 2, respectively have qualitatively similar dependencies on Bf. The probes differ mostly in protein expression, binding parameters (Kd, Ro and Rm) and stability. […] Although the non-responders are not characterized by bilirubin binding parameters, the emission spectrum of the 800CW-maleimide is sensitive to specific substitutions that can alter the LICOR 700DX-maleimide intensities. […] In some of these mutants the ratio of 700 to 819 nm increased from about 1% to 20% while in storage at 4° C. With suitable mutations this instability was eliminated.

Molecule: C[C@@H]1[C@H](O)[C@@H](C)/C=C/C=C/C=C/C=C/C=C/C=C/C=C/[C@H](O[C@@H]2O[C@H](C)[C@@H](O)[C@H](N)[C@@H]2O)C[C@@H]2O[C@](O)(C[C@@H](O)C[C@@H](O)[C@H](O)CC[C@@H](O)C[C@@H](O)CC(=O)O[C@H]1C)C[C@H](O)[C@H]2C(=O)O [Amphotericin B]
Displacement or Interference (Albumin [1]): 199%

Molecule: Cc1nnc(SCC2=C(C(=O)O)N3C(=O)[C@@H](NC(=O)Cn4cnnn4)[C@H]3SC2)s1 [Cefazolin sodium salt]
Displacement or Interference (Albumin [1]): 524%

Molecule: Cc1onc(-c2ccccc2)c1C(=O)N[C@@H]1C(=O)N2[C@@H]1SC(C)(C)[C@@H]2C(=O)O [Oxacillin]
Displacement or Interference (Albumin [1]): 616%

Molecule: C=CC1=C(C)/C(=C/c2[nH]c(Cc3[nH]c(/C=C4\NC(=O)C(C)=C4C=C)c(C)c3CCC(=O)O)c(CCC(=O)O)c2C)NC1=O [bilirubin]
Kd (adult human albumin): ~20 nM

Molecule: ditaurobilirubin
Bf (assay saturates) ([3]; Arrows UA-2, samples diluted 52-fold, 4 mg/dl ditaurobilirubin): ≥ 50 nM | increase of Bf from the initial 10 nM level ([3]; UBCheck, 4 mg/dl ditaurobilirubin): 20% | Bf ([3]; UBCheck, 4 mg/dl ditaurobilirubin, neonatal serum spiked to Bf of approximately 10 nM): about 12 nM | Bf ([3]; UBCheck, 20 mg/dl ditaurobilirubin): 33 nM

Molecule: hemoglobin
Bf concentration relative to zero hemoglobin [4]: unaffected

B1: 26C-C2XH11-700DXM: rIFABP mutein MGI-KR14-14R 18L 26C 27A 38V 60R 73F 106L 115R 117D 131D-C2XH11 labeled with LICOR 700DX-maleimide (protein)
chain: MGIAFDGTWRVDRNENRERFLERMGINVCARRLGAHDNLRVTITQEGNRFTVRESSNFRNIDRVFELGVDFAYSLFDGTELTGTWTMEGNRLVGRFRRVDNGRELIAVLEISGNELIRTDTYEGVEARRIFRRDRGAASHHHHHHSHRATPNTSPHHHHHHH
modifications: C2XH11 tag; LICOR 700DX-maleimide label; mutated bf sensitive probe
notes: rIFABP mutein MGI-KR14-14R 18L 26C 27A 38V 60R 73F 106L 115R 117D 131D-C2XH11 labeled with LICOR 700DX-maleimide
Qs (Rm/Ro) [5]: 0.36 | Kd [5]: 21 nM

B2: 27C-C2XH11-700DXM: rIFABP mutein MGI-KR14-14R 18L 27C 38V 60R 73F 106L 115R 117D 131D-C2XH11 labeled with LICOR 700DX-maleimide (protein)
chain: MGIAFDGTWRVDRNENRERFLERMGINVVCRRLGAHDNLRVTITQEGNRFTVRESSNFRNIDRVFELGVDFAYSLFDGTELTGTWTMEGNRLVGRFRRVDNGRELIAVLEISGNELIRTDTYEGVEARRIFRRDRGAASHHHHHHSHRATPNTSPHHHHHHH
modifications: C2XH11 tag; LICOR 700DX-maleimide label; mutated bf sensitive probe
notes: rIFABP mutein MGI-KR14-14R 18L 27C 38V 60R 73F 106L 115R 117D 131D-C2XH11 labeled with LICOR 700DX-maleimide
Qs (Rm/Ro) [5]: 0.21 | Kd [5]: 30 nM

B3: Mut:SEQ ID NO:1 B-73C: non-responder rat FABP mutein 20R 27A 29R 72A 73C 74F 100R 126W 131D-C2XH11 labeled with LICOR 800CW-maleimide (protein)
chain: AFDGTWKVDRNENYEKFMERMGINVVARRLGAHDNLKLTITQEGNKFTVKESSNFRNIDVVFELGVDFAYSACFGTELTGTWTMEGNKLVGKFKRVDNGRELIAVREISGNELIQTYTYEGVEAKWIFKKDRGAASHHHHHHSHRATPNTSPHHHHHHH
modifications: LICOR 800CW-maleimide label; nonresponder mutated probe
notes: non-responder rat FABP mutein 20R 27A 29R 72A 73C 74F 100R 126W 131D-C2XH11 labeled with LICOR 800CW-maleimide
intensity change (cv) of LICOR 800CW maleimide measured at 805 nm [6]: 2.5% | 700/819 ratio [7]: 1%

Continued, values first:

Bf larger in the UBCheck than Arrows (Albumin [2]): ~5 fold
Molecule: Cc1nnc(SCC2=C(C(=O)O)N3C(=O)[C@@H](NC(=O)Cn4cnnn4)[C@H]3SC2)s1 [Cefazolin]

Displacement or Interference (Albumin [1]): 157%
Molecule: CO/N=C(\C(=O)N[C@@H]1C(=O)N2C(C(=O)O)=C(COC(C)=O)CS[C@H]12)c1csc(N)n1 [Cefotaxime]

Displacement or Interference (Albumin [1]): 76%
Molecule: CC(C)(O/N=C(\C(=O)N[C@@H]1C(=O)N2C(C(=O)[O-])=C(C[n+]3ccccc3)CS[C@H]12)c1csc(N)n1)C(=O)O [Ceftazidime sodium salt]

Displacement or Interference (Albumin [1]): 1626%
Molecule: NS(=O)(=O)c1cc2c(cc1Cl)N=CNS2(=O)=O [Chlorothiazide]

Displacement or Interference (Albumin [1]): 820%
Molecule: NS(=O)(=O)c1cc(C(=O)O)c(NCc2ccco2)cc1Cl [Furosemide]

Displacement or Interference (Albumin [1]): −98%
Molecule: CC(=O)S[C@@H]1CC2=CC(=O)CC[C@]2(C)[C@H]2CC[C@@]3(C)[C@@H](CC[C@@]34CCC(=O)O4)[C@H]12 [Spironolactone]
